Assay results published in patent publication EP0157361A2, “Analysis method and means for detecting esterolytic and or proteolytic enzymes” (MILES INC., priority 1984, dated 1985).
“Also recorded” adds a separate entry of the source.

Key:
Assay type in all cases: biochemical
Leukozyten-Enzyme [1] = assay: Acceleration of cleavage of N-Tosyl-L-alanin-3-hydroxy-5-phenylpyrrolester by leukocytes (photometric, 330 nm); details: 250 µl N-Methylpyrrolidon
Experimental: (§1) Zu 2.25 ml des betreffenden Puffers fügte man je nach Substrat 50 - 250 µl N-Methylpyrrolidon als Lösungsvermittler und ergänzte das Volumen der Lösung mit Puffer auf 2.5 ml. Dann wurden 5 µl einer Lösung von 5 - 100 mg n-Undecanol in 1 ml N-Methylpyrrolidon sowie 5 µl einer Lösung von 2 mg Natriumdodecylsulfat (SDS) bzw. 4 mg der anderen Detergentien in 1 ml Wasser oder N-Methylpyrrolidon zu der Reaktionsmischung zugegeben. Nach gutem Durchmischen wurden 5 µl einer 10-1 molaren Substratlösung in N-Methylpyrrolidon, Dimethylformamid oder Dimethylsulfoxid in die Reaktionslösung gegeben und nach der Zugabe der Leukozytensuspension der Extinktionsanstieg bei der angegebenen Wellenlänge kontinuierlich verfolgt. Die Spontanhydrolyse des Substrats wird in einem Paralellansatz ohne Leukozytenzugabe anhand des Extinktionsanstiegs bestimmt.
(§2) Für die Bestimmung der Umsetzungsgeschwindigkeit wird der in der Enzymreaktion erhaltene Extinktionsanstieg um den für die Spontanhydrolyse ermittelten Betrag vermindert. Absolutwerte für die Substratspaltung (Mol. Min.^-1) können aus den Extinktionsdifferenzen mit Hilfe der molaren Extinktionskoeffizienten errechnet werden.
Beschleunigung der Spaltung von N-Tosyl-L-alanin-3-hydroxy-5-phenylpyrrolester mit Leukozyten in 0.1 M Tris-(hydroxymethyl)-aminomethan-Salzsäurepuffer (pH 8.8) in Gegenwart von 250 µl N-Methylpyrrolidon durch Zusätze von Aktivatoren und Detergentien.
Beschleunigung der Spaltung von N-Tosyl-L-alanin-3-hydroxy-5-phenylpyrrolester mit Leukozyten in diversen 0.1 M. Puffern (pH 8.4) unter Zusatz von 250 µl N-Methylpyrrolidon und Aktivatoren sowie Detergentien.

Leukozyten-Enzyme [2] = assay: Acceleration of enzymatic cleavage of N-Tosyl-L-alanin-indoxylester by leukocytes (photometric, 360 nm); details: for relative Spaltungsgeschwindigkeit: 0.1 M Tris-HCl buffer pH 8.8, 360 nm; for rel.Geschwindigk.der Enzymreaktion, bezogen auf Decanol (0,125 µl/Test) = 1: 50 µl N-Methylpyrrolidon, SDS 10 µg/Test, Tris-HCl pH 8.8
Experimental: as §1, §2
Beschleunigende Wirkung von Alkanolen auf die enzymatische Spaltung von N-Tosyl-L-alanin-indoxylester mit Leukozyten in 0.1 M Tris-(hydroxymethyl)-aminomethan-Salzsäure-Puffer pH 8.8 unter Zusatz von SDS bzw. Polylysin mit einem mittleren Molekulargewicht von 14 000 (Messung bei 360 nm).
Konzentrationsabhängigkeit der beschleunigenden Wirkung von n-Undecanol auf die Spaltung von N-Tosyl-L-alanin-indoxylester mit Leukozyten in Gegenwart von 50 µl N-Methylpyrrolidon/Testansatz und 10 µg/Test SDS in 0.1 M Tris-(hydroxymethyl)-aminomethan-Salzsäurepuffer (pH 8.8).

Leukozyten-Enzyme [3] = assay: Acceleration of cleavage of N-Tosyl-L-alanin-5-hydroxy-1,2-benzisothiazolylester by leukocytes (photometric, 325 nm); details: Aktivator 125 µg/Test, Tris-HCl pH 8.4, 100 µl N-Methylpyrrolidon
Experimental: as §1, §2
Beschleunigung der Spaltung von N-Tosyl-L-alanin-5-hydroxy-1,2-benzisothiazolylester mit Leukozyten in 0.1 M Tris-(hydroxymethyl)-aminomethan-Salzsäurepuffer (pH 8.4) in Gegenwart von 100 µl N-Methylpyrrolidon durch Zusätze von Aktivatoren und Detergentien.

Leukozyten-Enzyme [4] = assay: Activation of leukocyte enzymes, general statement in the description; details: statement in words; compared with Hexanol, Heptanol, Octanol, Nonanol, Decanol, Dodecanol, Tridecanol of EP-A 14 929
Experimental: as §1, §2

[5] = Detergens Poly-L-Lys (mean MW 14 000) 20 µg/Test
[6] = Aktivator 125 µg/Test, SDS 10 µg/Test, Tris-HCl pH 8.8
[7] = Aktivator 125 µg/Test, Zephirol 20 µg/Test, Tris-HCl pH 8.8
[8] = Puffer Borat 0.1 M pH 8.4, Aktivator 0.125 µl bzw. 125 µg je Test, SDS 10 µg/Test
[9] = Puffer Borat 0.1 M pH 8.4, Aktivator 0.125 µl bzw. 125 µg je Test, no detergent
[10] = Puffer Carbonat-Hydrogencarbonat 0.1 M pH 8.4, Aktivator 0.125 µl bzw. 125 µg je Test, SDS 10 µg/Test
[11] = Puffer Phosphat 0.1 M pH 8.4, Aktivator 0.125 µl bzw. 125 µg je Test, SDS 10 µg/Test
[12] = Puffer Tris 0.1 M pH 8.4, Aktivator 0.125 µl bzw. 125 µg je Test, BDTA 20 µg/Test
[13] = Puffer Tris 0.1 M pH 8.4, Aktivator 0.125 µl bzw. 125 µg je Test, Poly-L-Arg (40000) 20 µg/Test
[14] = Puffer Tris 0.1 M pH 8.4, Aktivator 0.125 µl bzw. 125 µg je Test, SDS 10 µg/Test
[15] = Puffer Tris 0.1 M pH 8.4, Aktivator 0.125 µl bzw. 125 µg je Test, no detergent

SMILES | relative Spaltungsgeschwindigkeit (Leukozyten-Enzyme [2]; [5]) | relative Spaltungsgeschwindigkeit (Leukozyten-Enzyme [2]; Detergens SDS 10 µg/Test) | relative Spaltungsgeschwindigkeit (Leukozyten-Enzyme [1]; [6]) | relative Spaltungsgeschwindigkeit (Leukozyten-Enzyme [1]; [7]) | relative Spaltungsgeschwindigkeit (Leukozyten-Enzyme [1]; [8]) | relative Spaltungsgeschwindigkeit (Leukozyten-Enzyme [1]; [9]) | relative Spaltungsgeschwindigkeit (Leukozyten-Enzyme [1]; [10]) | relative Spaltungsgeschwindigkeit (Leukozyten-Enzyme [1]; [11]) | relative Spaltungsgeschwindigkeit (Leukozyten-Enzyme [1]; [12]) | relative Spaltungsgeschwindigkeit (Leukozyten-Enzyme [1]; [13]) | relative Spaltungsgeschwindigkeit (Leukozyten-Enzyme [1]; [14]) | relative Spaltungsgeschwindigkeit (Leukozyten-Enzyme [1]; [15]) | relative Spaltungsgeschwindigkeit (Leukozyten-Enzyme [3]; Poly-L-Lys(14000) 20 µg/Test) | relative Spaltungsgeschwindigkeit (Leukozyten-Enzyme [3]; Poly-L-Orn(30000) 20 µg/Test) | relative Spaltungsgeschwindigkeit (Leukozyten-Enzyme [3]; SDS 10 µg/Test) | relative Spaltungsgeschwindigkeit (Leukozyten-Enzyme [3]; no detergent) | also measured
CCCCCCCCCCCCOS(=O)(=O)O [SDS, Natriumdodecylsulfat] |  |  |  |  |  |  |  |  |  |  |  |  |  |  |  |  | relative Spaltungsgeschwindigkeit (Leukozyten-Enzyme [1]; Puffer Borat 0.1 M pH 8.4, no activator, detergent SDS alone 10 µg/Test): 2.8; relative Spaltungsgeschwindigkeit (Leukozyten-Enzyme [1]; Puffer Tris 0.1 M pH 8.4, no activator, detergent SDS alone 10 µg/Test): 0.8
CCCCCCCCCCO [n-Decanol] | 3.2 | 1 | 1.0 | 1.27 | 9.0 | 4.9 | 5.6 | 12.0 | 1.05 | 3.7 | 1 | 0.9 | 4.25 | 3.8 | 1.0 | 1.9 | relative Spaltungsgeschwindigkeit (Leukozyten-Enzyme [1]; Puffer Borat 0.1 M pH 8.4, Aktivator 0.125 µl bzw. 125 µg je Test, Poly-DL-Lys(37000) 20 µg/Test): 3.15
CCCCCCCCCO [n-Nonanol] |  |  |  |  | 3.0 |  |  |  |  |  | 0.6 |  |  |  |  |  | 

Continued, in another order:

relative Spaltungsgeschwindigkeit (Leukozyten-Enzyme [2]; [5]) | relative Spaltungsgeschwindigkeit (Leukozyten-Enzyme [2]; Detergens SDS 10 µg/Test) | relative Spaltungsgeschwindigkeit (Leukozyten-Enzyme [1]; [6]) | relative Spaltungsgeschwindigkeit (Leukozyten-Enzyme [1]; [7]) | relative Spaltungsgeschwindigkeit (Leukozyten-Enzyme [1]; [8]) | relative Spaltungsgeschwindigkeit (Leukozyten-Enzyme [1]; [9]) | relative Spaltungsgeschwindigkeit (Leukozyten-Enzyme [1]; [10]) | relative Spaltungsgeschwindigkeit (Leukozyten-Enzyme [1]; [11]) | relative Spaltungsgeschwindigkeit (Leukozyten-Enzyme [1]; [12]) | relative Spaltungsgeschwindigkeit (Leukozyten-Enzyme [1]; [13]) | relative Spaltungsgeschwindigkeit (Leukozyten-Enzyme [1]; [14]) | relative Spaltungsgeschwindigkeit (Leukozyten-Enzyme [1]; [15]) | relative Spaltungsgeschwindigkeit (Leukozyten-Enzyme [3]; Poly-L-Lys(14000) 20 µg/Test) | relative Spaltungsgeschwindigkeit (Leukozyten-Enzyme [3]; Poly-L-Orn(30000) 20 µg/Test) | relative Spaltungsgeschwindigkeit (Leukozyten-Enzyme [3]; SDS 10 µg/Test) | relative Spaltungsgeschwindigkeit (Leukozyten-Enzyme [3]; no detergent) | SMILES | also measured
 | 0.55 |  |  | 9.0 |  |  |  |  |  |  |  |  |  |  |  | CCCCCCCCCCCCO [n-Dodecanol] | 
 | 0.75 |  |  |  |  |  |  |  |  |  |  |  |  |  |  | CCCCCCCCCCCCCO [n-Tridecanol] | 
6.5 | 1.85 | 3.3 | 2.6 | 15.2 | 5.6 | 6.6 | 17.3 | 3.55 | 6.55 | 2.1 | 1.7 | 8.2 | 7.4 | 2.5 | 3.1 | CCCCCCCCCCCO [n-Undecanol] | rel.Geschwindigk.der Enzymreaktion, bezogen auf Decanol (0,125 µl/Test) = 1 (Leukozyten-Enzyme [2]; 0,2 µl Undecanol in test solution): 2,1; rel.Geschwindigk.der Enzymreaktion, bezogen auf Decanol (0,125 µl/Test) = 1 (Leukozyten-Enzyme [2]; 0,5 µl Undecanol in test solution): 3,1; rel.Geschwindigk.der Enzymreaktion, bezogen auf Decanol (0,125 µl/Test) = 1 (Leukozyten-Enzyme [2]; 0,25 µl Undecanol in test solution): 3,2; rel.Geschwindigk.der Enzymreaktion, bezogen auf Decanol (0,125 µl/Test) = 1 (Leukozyten-Enzyme [2]; 0,025 µl Undecanol in test solution): 0,65; rel.Geschwindigk.der Enzymreaktion, bezogen auf Decanol (0,125 µl/Test) = 1 (Leukozyten-Enzyme [2]; 0,075 µl Undecanol in test solution): 1,5; rel.Geschwindigk.der Enzymreaktion, bezogen auf Decanol (0,125 µl/Test) = 1 (Leukozyten-Enzyme [2]; 0,125 µl Undecanol in test solution): 1,75; Aktivierung der Leukozyten-Enzyme (Leukozyten-Enzyme [4]): stark aktiviert; also recorded: alle vorgenannten Alkohole in der Aktivierung der Leukozyten- Enzyme übertrifft
